Test results taken from PubChem BioAssay AID463203 (Broad Institute, 2010).
Activity calls are given as the source filed them.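 Rule for the calls: active = more than half of replicate measurements showing over 20% loss of kinase signal relative to plate controls; inconclusive = some but at most half of replicates over 20% loss; inactive = no replicate over 20% signal loss.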

target: Glycogen synthase kinase-3 alpha (Homo sapiens) (UniProt P49840); test: concentration-response blocking of human GSK3A – biochemical, luminescence, cell-free homogeneous, retest, dose response (AID 463203); settings: GSK-3 alpha enzyme, ADP-Glo luminescence, 60 min
Sequence (P49840 whole entry, looked up): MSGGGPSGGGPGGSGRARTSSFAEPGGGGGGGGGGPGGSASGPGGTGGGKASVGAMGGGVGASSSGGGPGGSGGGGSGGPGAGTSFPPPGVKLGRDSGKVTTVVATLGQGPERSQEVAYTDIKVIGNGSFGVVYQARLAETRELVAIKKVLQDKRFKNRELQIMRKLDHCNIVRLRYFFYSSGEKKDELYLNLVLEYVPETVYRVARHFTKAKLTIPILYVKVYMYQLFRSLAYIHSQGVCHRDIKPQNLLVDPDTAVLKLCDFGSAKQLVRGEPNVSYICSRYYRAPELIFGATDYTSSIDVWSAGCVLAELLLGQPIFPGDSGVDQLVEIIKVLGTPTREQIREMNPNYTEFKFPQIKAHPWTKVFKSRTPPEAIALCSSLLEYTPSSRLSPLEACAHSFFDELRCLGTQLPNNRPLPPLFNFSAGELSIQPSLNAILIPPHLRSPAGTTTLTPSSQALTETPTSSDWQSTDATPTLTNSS

Structure (SMILES)	AC50
CCCCOC(=O)C1=C(C)Nc2ncnn2C1c1ccc(OC)c(OC)c1OC (stereo not drawn)	12.4 µM
CCOC(=O)C1=C(CC)OC(N)=C(C#N)C1c1ccc(NC(C)=O)cc1 (stereo not drawn)	> 30 µM (inactive)
N#Cc1sc2nc(-c3cccs3)cc(-c3ccccc3)c2c1N	> 30 µM (inactive)
COCCNC(=O)Cn1cnc([N+](=O)[O-])n1	> 30 µM (inactive)
Nc1nc(SCCOc2ccccc2)n[nH]1	> 30 µM (inactive)
CCn1c(SCC(=O)Nc2ccc(C)cc2)nnc1-c1ccc(O)cc1	> 30 µM (inactive)
N#CC1=C(SCC(=O)c2ccccc2)NC2=C(C(=O)CCC2)C1c1ccco1 (stereo not drawn)	> 30 µM (inactive)
CCOC1(OCC)N=C(N)C2(C#N)C(c3cccc(C)c3)C12C#N (stereo not drawn)	> 30 µM (inactive)
c1ccc2c(c1)c1ccccc1n1c(-c3ccc4c(c3)OCO4)nnc21	> 30 µM (inactive)
CCOc1nc(NCCN2CCOCC2)nc(Nc2ccc([N+](=O)[O-])cc2)n1	> 30 µM (inactive)
CCOc1ccc(NC(=O)N(C2CCCCC2)C(C)c2cccnc2)cc1 (stereo not drawn)	> 30 µM (inactive)
Oc1ccc(-c2nnc(-c3ccccc3)c(-c3ccccc3)n2)cc1	> 30 µM (inactive)
CCCOc1ccc(-c2c(C(=O)N/N=C(\C)c3ccncc3)nnn2-c2nonc2N)cc1	> 30 µM (inactive)
O/N=C1/CC/C(=N\O)c2nn(-c3ccccc3)nc21	25.3 µM
CCc1nnc(NC(=O)c2cccc(S(=O)(=O)N3CC(c4ccccc4)CC3=O)c2)s1 (stereo not drawn)	> 30 µM (inactive)
O=[N+]([O-])c1cc(S(=O)(=O)N2CCCCC2)ccc1NCCCN1CCOCC1	> 30 µM (inactive)
CCOC(=O)c1nnn(-c2nonc2N)c1COc1ccc(F)cc1	4.9 µM
COc1ccc(-n2c(C)c([N+](=O)[O-])c3ccc(O)c(CN(C)C)c32)cc1	5.94 µM
COc1ccc(OCC(=O)N2CCN(c3nnc(-c4ccc(C)cc4)c4ccccc34)CC2)cc1	> 30 µM (inactive)
CCCOc1ccccc1NC(=O)Nc1ccccc1Cl	> 30 µM (inactive)
O=C(Nc1ccccc1N1CCOCC1)c1cnccn1	28.6 µM
Cc1nc2c(ccc3c2ccc2nc(C)sc23)s1	> 30 µM (inactive)
CCCCC(=O)Nc1nn(CCC)c2nc3ccccc3cc12	> 30 µM (inactive)
COCC(=O)Nc1ccc([N+](=O)[O-])cc1OC	> 30 µM (inactive)
COc1cc(/C=c2\s/c(=C\C(=O)C(C)(C)C)[nH]c2=O)cc(OC)c1OC	> 30 µM (inactive)
CCN(C(=O)C1CCCN1S(=O)(=O)c1cccc2nsnc12)c1ccccc1 (stereo not drawn)	23.9 µM

Structure (SMILES)	AC50
CCN1C(=O)/C(=C2\SC(=S)N(c3c(C)n(C)n(-c4ccccc4)c3=O)C2=O)c2ccccc21	> 30 µM (inactive)
CCOC(=O)c1nc(NCc2ccccc2C)c2ccccc2n1	> 30 µM (inactive)
CC(C)CNc1cc(N2CCCC2)ccc1[N+](=O)[O-]	> 30 µM (inactive)
Oc1ccc2c(c1)oc1cc(O)ccc12	12 µM
CN(C)Cc1c(C(=O)N/N=C/c2ccc(-c3ccccc3)cc2)nnn1-c1nonc1N	> 30 µM (inactive)
CCN1CCN(Cc2cc(OC)c(OC)cc2[N+](=O)[O-])CC1	> 30 µM (inactive)
COc1ccc(-n2c(Cc3cccn3C)nnc2SCC(=O)Nc2ccc(F)cc2)cc1	> 30 µM (inactive)
Cc1c(C(=O)N/N=C/c2cccnc2)nnn1-c1nonc1N	> 30 µM (inactive)
NNC(=O)/C(=N/Nc1ccccc1)S(=O)(=O)c1ccc(Cl)cc1	> 30 µM (inactive)
Cc1cc(NCc2ccco2)n2c(nc3ccccc32)c1C#N	> 30 µM (inactive)
CN1/C(=C/C(=S)NC(=O)C2CCC2)C(C)(C)c2ccccc21	> 30 µM (inactive)
CCCOC(=O)c1[nH]c2c(c1C)C(=O)CC(c1cc(OC)c(OC)c(OC)c1)C2 (stereo not drawn)	> 30 µM (inactive)
Cn1c(SCc2nc(-c3ccc(Cl)cc3)no2)nnc1-c1ccccc1	> 30 µM (inactive)
Cc1ccc(C(=O)c2cc(C)sc2NC(=O)CN2CCN(C(=O)c3ccco3)CC2)cc1	> 30 µM (inactive)
COCCNc1nc(N)c([N+](=O)[O-])c(NCc2ccccc2)n1	7.15 µM
O=C1c2ccccc2-c2onc3ccc(NCc4ccco4)c1c23	> 30 µM (inactive)
COc1ccc(-c2cc(C(F)(F)F)nc(SCCC(=O)NCc3ccccc3)n2)cc1	> 30 µM (inactive)
O=Cc1cn(-c2ccccc2)nc1-c1ccc2c(c1)OCCO2	> 30 µM (inactive)
CN(C)c1ccc(/C=N/NC(=O)c2nnn(-c3nonc3N)c2CN(C)c2ccccc2)cc1	> 30 µM (inactive)
O=C(OC1CO[C@H]2O[C@@H]1[C@H](OC(=O)c1ccccc1)[C@H]2OC(=O)c1ccccc1)c1ccccc1 (stereo partly drawn)	> 30 µM (inactive)
COc1ccccc1C(CNc1ccc(S(=O)(=O)N2CCCC2)cc1[N+](=O)[O-])N(C)C (stereo not drawn)	> 30 µM (inactive)
Oc1[nH]c2ccc(Br)cc2c1N=Nc1nn[nH]n1	23.3 µM
Nc1nonc1-n1nnc(C(=O)N/N=C/c2ccc(Cl)cc2Cl)c1CN1CCOCC1	> 30 µM (inactive)
COC(=O)c1cn(C(=O)c2ccc(Cl)cc2)c2ccccc12	> 30 µM (inactive)
COc1cc(O)c(NC(C)=O)c2nonc12	> 30 µM (inactive)
O=C(O)Cn1c(=O)c2c3c(sc2n(Cc2ccc(Cl)cc2Cl)c1=O)CCCC3	> 30 µM (inactive)

Structure (SMILES)	AC50
O=C(NCC1CCN(Cc2ccccc2Cl)CC1)Nc1cccc(Cl)c1	> 30 µM (inactive)
CCOC(=O)N1CCc2c(sc3nc(SC(C)C)n(N)c(=O)c23)C1	> 30 µM (inactive)
c1ccc(-c2csc3ncnc(NCc4ccccn4)c23)cc1	24.5 µM
O=c1[nH]c2c(s1)C(c1ccco1)C1C3CCC(C3)C1S2 (stereo not drawn)	15.3 µM
O=C1/C(=C/c2ccc3c(c2)OCO3)Oc2cc(OCC(=O)N3CCC[C@H]3C(=O)O)ccc21	4.35 µM
CCOc1cccc(-c2c(C(=O)N/N=C/c3sccc3C)nnn2-c2nonc2N)c1	> 30 µM (inactive)
O=C(c1ccco1)c1cn(CC(=O)N2CCCCC2)c2ccccc12	> 30 µM (inactive)
Cc1ccc(N=c2oc3cc(O)ccc3cc2C(N)=O)cc1	2.17 µM
Cc1cc(NC(=O)c2sc(Nc3ccc(F)cc3)nc2N)no1	8.04 µM
CCNC(=S)NNC(=O)c1cccs1	> 30 µM (inactive)
Cc1cnc(NC(=O)C2CC(=O)N(c3cccc(Cl)c3)C2)s1 (stereo not drawn)	12.6 µM
N#Cc1ccccc1Cn1cc(/C=N/Nc2ccc([N+](=O)[O-])cn2)c2ccccc21	> 30 µM (inactive)
c1ccc2[nH]c(-c3ccncc3)nc2c1	> 30 µM (inactive)
COCc1cc(C)nc(OCC(=O)N/N=C/c2ccc(O)cc2)c1C#N	13.3 µM
CCn1nc(-c2ccccc2)nc2c(=O)n(C)c(=O)nc1-2	27.3 µM
Cc1cc2c(C)c(C)c(=O)[nH]c2cc1N	> 30 µM (inactive)
CCOC(=O)c1cnc2c(C)cc(Cl)cc2c1N1CCN(C)CC1	> 30 µM (inactive)
CC(=O)c1cccc(-c2ccc3c(=O)[nH]c(Nc4ccccc4)cc3c2)c1	> 30 µM (inactive)
Nc1nonc1-n1nnc(C(=O)N/N=C/c2ccco2)c1CSc1ccccc1	> 30 µM (inactive)
O=C(NC1=NCCS1)c1ccc(Cl)cc1	> 30 µM (inactive)
O=C(NC(=S)Nc1cccc2cnccc12)c1ccccc1	> 30 µM (inactive)
O=C(NCCc1csc(-c2ccccc2)n1)c1ccc(Br)o1	17.4 µM
O=C(NCc1ccc(C(=O)N2CCC3(CC2)OCCO3)cc1)c1cccc(Br)c1	> 30 µM (inactive)
CCCCc1cc(=O)oc2cc(O)ccc12	25.9 µM
CCOC(=O)c1c(NC(=O)CSc2nnc(CNc3ccc(C)cc3C)o2)sc(C)c1C	> 30 µM (inactive)
CN(Cc1c(C(=O)N/N=C/c2ccccc2)nnn1-c1nonc1N)C1CCCCC1	> 30 µM (inactive)

Structure (SMILES)	AC50
Cc1cccc(C)c1OCC(=O)Nc1ccc2c(c1)C(=O)NC2=O	22.5 µM
CC1CN(c2nc(Nc3ccccc3F)nc(N)c2[N+](=O)[O-])CC(C)O1 (stereo not drawn)	9.19 µM
O=C(Nc1ccccc1C(=O)NC1CCCCC1)c1ccccc1	> 30 µM (inactive)
c1ccc2c(CCNc3ncnc4nc[nH]c34)c[nH]c2c1	23.1 µM
O=c1[nH]c(=O)n(Cc2ccc(F)cc2)c(O)c1C=NCCCn1ccnc1	> 30 µM (inactive)
Cc1nc2c(C)cccn2c1/C(O)=C1\C(=O)C(=O)N(CCN2CCOCC2)C1c1cccs1 (stereo not drawn)	> 30 µM (inactive)
COc1ccc(Nc2cc(C)nc(N)n2)cc1	> 30 µM (inactive)
O=C(c1ccc(Cl)cc1)c1cnc(Nc2ccccc2Cl)s1	> 30 µM (inactive)
COc1cccc(OCc2cc(C(=O)NCc3ccc4c(c3)OCO4)no2)c1	> 30 µM (inactive)
COC(=O)C1=C(C)Nc2[nH]c(=S)[nH]c(=O)c2C1c1ccc(O)cc1 (stereo not drawn)	> 30 µM (inactive)
CC(C)COC(=O)N1CCCC1C(=O)Nc1nccs1 (stereo not drawn)	> 30 µM (inactive)
Cc1ccc(CSc2ccc3nnc(-c4cccnc4)n3n2)cc1	> 30 µM (inactive)
O=[N+]([O-])c1ccc(N/N=C/c2cn(Cc3ccc(F)cc3)c3ccccc23)nc1	> 30 µM (inactive)
O=C(NCCCN1CCOCC1)c1cc(Cl)ccc1[N+](=O)[O-]	> 30 µM (inactive)
Cn1cnnc1SCC(=O)Nc1ncc([N+](=O)[O-])s1	> 30 µM (inactive)
COc1ccc(CCNC(=O)c2nnn(-c3ccccc3OC)c2N)cc1OC	14.8 µM
Cc1ccc(-c2nnc(N3CCN(C(=O)COc4ccccc4)CC3)c3ccccc23)cc1	> 30 µM (inactive)
COC(=O)C1=C(C(=O)OC)C(c2cc(Cl)ccc2O)c2sc(=O)[nH]c2S1 (stereo not drawn)	28.4 µM
Oc1ccc(-c2nnc(-c3ccc(O)cc3)nn2)cc1	> 30 µM (inactive)
CCOc1ccccc1NC(=O)Nc1ccc(Cl)cc1	> 30 µM (inactive)
COc1ccc(Nc2sc(C(=O)c3ccc(Cl)cc3)c(N)c2C(=O)Nc2ccccc2OC)cc1	> 30 µM (inactive)
c1cncc(-c2nc3ccccc3[nH]2)c1	> 30 µM (inactive)
c1ccc(N2CCN(c3cnc4ccccc4n3)CC2)cc1	> 30 µM (inactive)
CC1(C)Cc2c(sc3c2C2=NCCN2C=N3)CS1	> 30 µM (inactive)
CCN1/C(=C/C(C)=O)Sc2ccc(OC)cc21	16.5 µM
